Where “and” joins values, the source holds several entries; their conditions need not be identical. Equal entries are not always repeated.
Key:
[1] = test system: high-fat diet (HFD)-induced obesity model mice; assay: Hepatic lipid analysis (total lipid, triglyceride, total cholesterol) in HFD mice; assay type: in vivo, C57BL/6J mice; design: Liver TC (Fig. 4c), individual mouse values / Liver TG (Fig. 4d), individual mouse values / Total lipid, liver (Fig. 4e), individual mouse values / Mean Diff., ND vs. treated (Fig. 4c) / Mean Diff., Vehicle vs. treated (Fig. 4c) / Mean (Fig. 4c) / Mean Diff., ND vs. treated (Fig. 4d) / Mean Diff., Vehicle vs. treated (Fig. 4d) / Mean (Fig. 4d) / Mean 2 (group mean), Fig. 4e / Mean Diff., Vehicle vs. treatment, Fig. 4e: unit not given here; conditions: for Mean Diff., ND vs. treated (Fig. 4c) / Mean Diff., Vehicle vs. treated (Fig. 4c) / Mean Diff., ND vs. treated (Fig. 4d) / Mean Diff., Vehicle vs. treated (Fig. 4d): Tukey's multiple comparisons test; for Mean (Fig. 4c) / Mean (Fig. 4d) / Mean 2 (group mean), Fig. 4e: group mean, n=10; for Mean 2 (group mean), Fig. 4e: Tukey test details; for Mean Diff., Vehicle vs. treatment, Fig. 4e: vehicle mean 33.43 minus group mean
Procedure: Frozen livers were homogenized with chloroform-methanol (2:1), and the chloroform layer into which the liver lipids were extracted was collected. This extract was used to measure hepatic total lipid, triglyceride (TG), and total cholesterol (TC) contents. […] The total liver lipid content was measured according to the method described by Forch et al.[19].
Fig. 4 Effects of TH analogs on the accumulation of lipids in mice. […] After 3 weeks of injection, serum and liver tissues were collected, and the amount of serum cholesterol (a), serum triglycerides (b), liver cholesterol (c), liver triglycerides (d), and liver total lipids (e) were measured.

[2] = In vitro blood-brain barrier permeability assay (BBB kit RBT-24H); assay type: in vitro ADME, rat
Procedure: Therefore, we tested BBB transparency in vitro using the BBB kit RBT-24H (PharmaCo-Cell)[35]. […] Blood-brain barrier permeability assay The blood-brain barrier (BBB) transparency of TH analogs was assessed in vitro using RBT-24H (PharmaCo-Cell)[5] according to the manufacturer 's protocol. […] After 30 min, the assay buffer in the wells mimicking the abluminal side was collected, and the concentration of the compounds was measured using liquid chromatography-mass spectrometry (LC-MS). […] These tips were preconditioned with 20 μL of acetonitrile and 20 μL of 0.1% TFA in purified water. 100 μL of the samples were loaded onto the preconditioned tips, washed with 200 μL of DW, and then eluted with 10 μL of acetonitrile. Triazine (1% vol/vol) was added to the eluent as an internal standard. […] 3 μm; Imtakt, Kyoto, Japan). All the experiments were performed using an Ultimate 3000 UHPLC system coupled with a Q Exactive Plus Orbitrap mass spectrometer (Thermo Fisher Scientific). […] Data were shown as mean ± standard deviation (n=3).

[3] = test system: THR-regulated genes and lipid metabolism-related genes in the liver
THRα = conditions: cited from earlier work
[4] = HFD mice, i.p., dose not given (0.1 or 1 µmol/kg day), 3 weeks
[5] = HFD mice, 1 μmol/kg day, RT-qPCR, reference gene Rps18
[6] = liver gene expression, 1µmol dose group vs. Vehicle

For `Cc1cc(OCC(=O)O)cc(C)c1Cc1ccc(O)c(C(C)C)c1` [GC-1], the “Liver TG (Fig. 4d), individual mouse values” ([1]; 0.1 µmol, HFD mice) was 24.1421 and 24.9345 and 16.7281 and 53.1111 and 43.7729 and 30.8738 and 30.6856 and 28.2214 and 34.8729 and 73.7669, the “Total lipid, liver (Fig. 4e), individual mouse values” ([1]; 0.1 µmol, HFD mice) was 14.6 and 17.3 and 14 and 22.6 and 24.3 and 18.1 and 18.3 and 16.9 and 17.5 and 26.9 and the “Liver TC (Fig. 4c), individual mouse values” ([1]; 1 µmol, HFD mice) was 1.533 and 1.874 and 2.437 and 2.533 and 1.78 and 2.383 and 1.435 and 2.474 and 2.396 and 2.183. The “Liver TG (Fig. 4d), individual mouse values” ([1]; 1 µmol, HFD mice) was 36.2948 and 32.7305 and 46.4896 and 42.7911 and 37.2232 and 76.8394 and 41.2151 and 27.0034 and 47.7732 and 49.1408, the “Total lipid, liver (Fig. 4e), individual mouse values” ([1]; 1 µmol, HFD mice) was 17.5 and 17.4 and 20.9 and 22.7 and 22.5 and 28.6 and 18.9 and 18.3 and 21 and 19.5 and the “Mean Diff., ND vs. treated (Fig. 4c)” value ([1]; ND minus 0.1 µmol group) was -0.7328. For the same compound, the “Mean Diff., ND vs. treated (Fig. 4c)” value ([1]; ND minus 1 µmol group) was -0.8444, the “Mean Diff., Vehicle vs. treated (Fig. 4c)” value ([1]; Vehicle minus 0.1 µmol group) was -0.4289 and the “Mean Diff., Vehicle vs. treated (Fig. 4c)” value ([1]; Vehicle minus 1 µmol group) was -0.5405. The “Mean (Fig. 4c)” value ([1]; 0.1 µmol, HFD mice) was 1.991, the “Mean (Fig. 4c)” value ([1]; 1 µmol, HFD mice) was 2.103 and the “Mean Diff., ND vs. treated (Fig. 4d)” value ([1]; ND minus 0.1 µmol group) was -7.809. The “Mean Diff., ND vs. treated (Fig. 4d)” value ([1]; ND minus 1 µmol group) was -15.45, the “Mean Diff., Vehicle vs. treated (Fig. 4d)” value ([1]; Vehicle minus 0.1 µmol group) was 37.27 and the “Mean Diff., Vehicle vs. treated (Fig. 4d)” value ([1]; Vehicle minus 1 µmol group) was 29.63. For the same compound, the “Mean (Fig. 4d)” value ([1]; 0.1 µmol, HFD mice) was 36.11, the “Mean (Fig. 4d)” value ([1]; 1 µmol, HFD mice) was 43.75 and the “liver total lipids vs vehicle” value [1, 4] was “significantly decreased”. For the same compound, the “liver triglycerides vs vehicle” value [1, 4] was “significantly decreased”, the “Mean 2 (group mean), Fig. 4e” value ([1]; HFD mice, 0.1 µmol) was 19.05 and the “Mean Diff., Vehicle vs. treatment, Fig. 4e” value ([1]; HFD mice, 0.1 µmol) was 14.38. For the same compound, the “Mean 2 (group mean), Fig. 4e” value ([1]; HFD mice, 1 µmol) was 20.73, the “Mean Diff., Vehicle vs. treatment, Fig. 4e” value ([1]; HFD mice, 1 µmol) was 12.7 and the Abluminal concentration ([2]; 10 µM on luminal side, 30 min, mean ± standard deviation (n=3)) was 0.0966 ± 0.0234 µM. The Papp at 30 min, 10 µM ([2]; rat, 10 μM on luminal side, read-out: apparent permeability (Papp)) was 14.6 ± 3.54 ×10⁻⁶ cm/s, the “Dio1 expression in the liver, individual animal values” ([3]; 1µmol, one value per animal) was 3.829 and 3.919 and 5.168 and 4.354 and 3.692 and 2.159 and 3.566 and 3.314 and 5.1441 and 5.131 and the “Ldlr expression in the liver, individual animal values” ([3]; 1µmol, one value per animal) was 1.223 and 2.2 and 0.6334 and 0.7002 and 0.6702 and 3.257 and 0.3372 and 1.534 and 1.675. For the same compound, the “Me1 expression in the liver, individual animal values” ([3]; 1µmol, one value per animal) was 1.623 and 3.346 and 4.729 and 3.444 and 1.386 and 2.548 and 5.3983 and 2.089 and 4.684 and 5.253, the “Pnpla2 expression in the liver, individual animal values” ([3]; 1µmol, one value per animal) was 2.545 and 1.795 and 3.166 and 2.343 and 2.009 and 2.4714 and 3.073 and 2.97 and 1.253 and 2.348 and the “Srebp1c expression in the liver, individual animal values” ([3]; 1µmol, one value per animal) was 0.08164 and 0.06602 and 0.1318 and 0.09978 and 0.1458 and 0.0919 and 0.4057 and 0.2719 and 0.0552 and 0.07309. The “Thrsp expression in the liver, individual animal values” ([3]; 1µmol, one value per animal) was 1.4847 and 1.604 and 3.066 and 1.407 and 2.579 and 0.6637 and 2.019 and 1.066 and 1.315 and 1.484, the “liver expression of Dio1 vs vehicle” value [3, 5] was “significantly upregulated” and the “liver expression of Ldlr vs vehicle” value [3, 5] was “not significantly different”. The “liver expression of Me1 vs vehicle” value [3, 5] was “significantly upregulated”, the “liver expression of Pnpla2 vs vehicle” value [3, 5] was “significantly higher” and the “liver expression of Srebp1c vs vehicle” value [3, 5] was “significantly lower”. The “liver expression of Thrsp vs vehicle” value [3, 5] was “increased”, the “Pnpla2, Dunn's multiple comparisons test, Mean rank diff. (Vehicle vs. compound)” value [3, 6] was -16.8 and the “Srebp1c, Dunn's multiple comparisons test, Mean rank diff. (Vehicle vs. compound)” value [3, 6] was 22.27. For the same compound, the “Pnpla2, Mean rank of treatment group (Mean rank 2)” value ([3]; liver gene expression, 1µmol dose group, Vehicle mean rank 8) was 24.8, the “Srebp1c, Mean rank of treatment group (Mean rank 2)” value ([3]; liver gene expression, 1µmol dose group, Vehicle mean rank […]) was 11.4 and the “lower affinity for THRα than T3” value (THRα) was 10 fold.

Source: publication PMC11303563 (Communications Medicine, 2024)
